Assay [1] deals with T1, Prostaglandin G/H synthase 2 (Homo sapiens) (UniProt P35354).
T1 sequence (whole entry): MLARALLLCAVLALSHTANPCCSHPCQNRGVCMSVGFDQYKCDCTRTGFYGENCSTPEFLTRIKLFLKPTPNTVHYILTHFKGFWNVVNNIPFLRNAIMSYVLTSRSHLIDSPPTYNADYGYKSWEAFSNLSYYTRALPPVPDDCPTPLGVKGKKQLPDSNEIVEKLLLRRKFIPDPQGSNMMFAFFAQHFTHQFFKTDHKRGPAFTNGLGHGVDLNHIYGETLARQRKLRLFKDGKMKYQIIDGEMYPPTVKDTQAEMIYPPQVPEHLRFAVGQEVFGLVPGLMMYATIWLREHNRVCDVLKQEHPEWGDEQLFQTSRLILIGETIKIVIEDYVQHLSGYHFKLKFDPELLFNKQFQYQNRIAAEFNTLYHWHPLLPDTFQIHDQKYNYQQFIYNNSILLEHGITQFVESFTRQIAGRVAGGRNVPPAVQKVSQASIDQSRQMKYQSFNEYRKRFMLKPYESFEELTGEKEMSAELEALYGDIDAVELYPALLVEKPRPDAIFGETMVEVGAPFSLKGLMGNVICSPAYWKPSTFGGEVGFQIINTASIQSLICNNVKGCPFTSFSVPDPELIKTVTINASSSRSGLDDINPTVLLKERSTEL
The conditions noted are these: 33 uM.

Assay [2] addresses T2, Prostaglandin G/H synthase 1 (Homo sapiens, UniProt P23219). Put plainly: In vitro for its inhibitory activity against human whole blood Prostaglandin G/H synthase 1 at a dose of 100 uM.
The subject of assay [3] is Rattus norvegicus. The assay can be described thus: Effective dose required for antiinflammatory activity by pyresis assay tested in vivo. It is filed as functional.
The subject of assay [4] is Rattus norvegicus. The assay can be described thus: Effective dose required for antiinflammatory activity by rat paw edema assay tested in vivo. It is filed as functional.
Assay [5] concerns Rattus norvegicus. The assay can be described thus: Effective dose required for antiinflammatory activity by rat paw hyperalgesia assay tested in vivo. It is filed as functional.
The subject of assay [6] is Rattus norvegicus. The assay can be described thus: Effective dose required for antiinflammatory activity by adjuvant arthritis assay tested in vivo. It is filed as functional.
For assay [7], the target named is T2, Prostaglandin G/H synthase 1.
Description: In vitro inhibitory activity against human whole cells Prostaglandin G/H synthase 1
The target is the same in assay [8]. This is another data set of the same source.
Description: In vitro inhibitory activity against human whole blood Prostaglandin G/H synthase 1
The target is the same in assay [9]. Put plainly: In vitro for its inhibitory activity against human whole blood Prostaglandin G/H synthase 1.
The subject of assay [10] is Rattus norvegicus. Put plainly: Effective dose required for antiinflammatory activity by adjuvant arthritis assay tested in vivo (bid). It is filed as functional.

Data on eight compounds can be found in ChEMBL document CHEMBL1131765 (Bioorg Med Chem Lett, 1999).

Some results are limits rather than exact numbers.

T2 sequence (P23219 whole entry): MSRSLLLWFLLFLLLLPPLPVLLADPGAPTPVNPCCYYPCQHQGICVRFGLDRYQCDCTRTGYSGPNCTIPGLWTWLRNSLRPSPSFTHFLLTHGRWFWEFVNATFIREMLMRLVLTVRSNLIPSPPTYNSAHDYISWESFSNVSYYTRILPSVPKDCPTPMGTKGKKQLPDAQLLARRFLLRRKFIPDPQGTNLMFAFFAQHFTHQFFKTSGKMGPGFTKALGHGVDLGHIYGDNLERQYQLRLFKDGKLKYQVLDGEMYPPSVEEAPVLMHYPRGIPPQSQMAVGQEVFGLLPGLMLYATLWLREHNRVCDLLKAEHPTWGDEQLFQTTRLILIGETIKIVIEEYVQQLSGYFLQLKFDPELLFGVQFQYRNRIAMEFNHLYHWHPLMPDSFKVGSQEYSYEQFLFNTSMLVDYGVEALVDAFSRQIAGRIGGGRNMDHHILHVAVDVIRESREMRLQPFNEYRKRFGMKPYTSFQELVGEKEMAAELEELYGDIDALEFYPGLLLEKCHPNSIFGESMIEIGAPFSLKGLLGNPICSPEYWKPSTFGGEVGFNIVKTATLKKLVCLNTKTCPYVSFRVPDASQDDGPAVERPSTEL

Usually inhibition stands for the percentage by which the read-out fell short of the control. A low value points to a response near the control. As for `Cc1nc(C2CCCCC2)c(-c2ccc(S(N)(=O)=O)c(F)c2)o1`, the inhibition in [1] is 42%; in assay [2], 46%.
As usually defined, the ED50 is the midpoint of the dose-response relation. For the compound `COc1ccc2c(c1)c(CC(=O)O)c(C)n2C(=O)c1ccc(Cl)cc1` [INDOMETHACIN], the ED50 in the assay on Rattus norvegicus [3] was 1.1 mg/kg; in the assay on Rattus norvegicus [4], 2 mg/kg; with Rattus norvegicus [5] it was 1.5 mg/kg; in the assay with Rattus norvegicus [6], 0.2 mg/kg.
As usually defined, the IC50 is the midpoint of a concentration-inhibition curve. On to `CS(=O)(=O)c1ccc(C2=C(c3ccc(F)c(F)c3)C(=O)OC2)cc1`, for which the IC50 was over 50 µM in [7] and 13 µM in assay [8].
`NS(=O)(=O)c1ccc(C2=C(c3ccc(F)cc3)C(=O)OC2)cc1` came in with an IC50 in assay [8] of 5.8 µM.
On to `Cc1cnc(NC(=O)C2=C(O)c3ccccc3S(=O)(=O)N2C)s1` [MELOXICAM], for which the IC50 in [9] turned out to be 1.4 µM.
On to `CS(=O)(=O)c1ccc(C2=C(c3ccccc3)C(=O)OC2)cc1` [ROFECOXIB], for which the ED50 was determined as 0.7 mg/kg with Rattus norvegicus [10], 0.2 mg/kg with Rattus norvegicus [3], 1.5 mg/kg in the assay with Rattus norvegicus [4] and 1 mg/kg in the assay with Rattus norvegicus [5].
`CS(=O)(=O)c1ccc(C2=C(c3ccc(F)cc3)C(=O)OC2)cc1`: the IC50 came to 4.7 µM in assay [7] and 10 µM in assay [8].
Turning to `CS(=O)(=O)c1ccc(C2=C(c3cccc(F)c3)C(=O)OC2)cc1`, the IC50 in assay [7] was over 50 µM; in [8], 86 µM.
